Measurements published in patent US9951021B2, “Compounds for inhibiting c-Myc/Max/DNA complex formation” (NATIONAL CANCER CENTER, priority 2016, dated 2018).

Molecular target: T1, recombinant c-Myc/Max (Homo sapiens, UniProt P01106+P61244)
T1 construct: made in house
Assay: Electrophoretic mobility shift assay (EMSA): inhibitory activity on DNA binding of recombinant c-Myc/Max
Settings: read-out: protein assay IC50
Method: 1) Preparation of Recombinant c-Myc and Max Proteins
Recombinant proteins were prepared as described in the following references: K. C. Jung et al., Fatty Acids, Inhibitors for the DNA Binding of c-Myc/Max Dimer, Suppress Proliferation and Induce Apoptosis of Differentiated HL-60 Human Leukemia Cell, Leukemia, 2006, 20(1), 122-7 or Kyung-Chae Jeong et al., Small-Molecule Inhibitors of c-Myc Transcriptional Factor Suppress Proliferation and Induce Apoptosis of Promyelocytic Leukemia Cell via Cell Cycle Arrest, Mol. BioSyst., 2010, 6, 1503-1509.
2) Electrophoretic Mobility Shift Assay (EMSA)
The inhibitory activity of each candidate compound on DNA binding of recombinant c-Myc/Max was measured using an electrophoretic mobility shift assay (EMSA). The ratio of protein-DNA complexes in each sample was evaluated by measuring band intensity. The oligonucleotides (E-box) corresponding to the consensus binding site of Myc/Max were dimerized through an annealing process. The protein mixture was incubated at room temperature for 5 minutes, and a DMSO solution containing each candidate compound was added thereto. The mixture was further incubated for 5 minutes, and the biotinylated DNA was added. To achieve a state of equilibrium, the final mixture was incubated at room temperature for 10 minutes. The protein-DNA complexes were separated from unbound free DNA by pre-electrophoresis using 8% polyacrylamide gel and 1×TBE buffer. After pre-electrophoresis, electrophoresis was performed at 120 V for 1 hour in 1×TBE buffer. Each band was visualized using HRP-conjugated streptavidin and an ECL solution, and band intensity was measured using image analysis software.

T1 sequence (P01106 whole entry): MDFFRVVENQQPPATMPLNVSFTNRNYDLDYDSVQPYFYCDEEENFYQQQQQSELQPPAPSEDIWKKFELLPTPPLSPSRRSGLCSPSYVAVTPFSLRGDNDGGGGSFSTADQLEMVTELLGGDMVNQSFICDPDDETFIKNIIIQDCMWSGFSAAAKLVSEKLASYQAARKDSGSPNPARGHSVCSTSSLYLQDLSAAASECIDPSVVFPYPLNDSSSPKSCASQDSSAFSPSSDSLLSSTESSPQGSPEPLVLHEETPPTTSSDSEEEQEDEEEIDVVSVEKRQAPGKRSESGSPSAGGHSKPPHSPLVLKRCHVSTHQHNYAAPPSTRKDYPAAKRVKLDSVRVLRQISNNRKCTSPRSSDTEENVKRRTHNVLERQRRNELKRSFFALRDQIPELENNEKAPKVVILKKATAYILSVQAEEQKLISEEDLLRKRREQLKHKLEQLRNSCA
T1 sequence (P61244 whole entry): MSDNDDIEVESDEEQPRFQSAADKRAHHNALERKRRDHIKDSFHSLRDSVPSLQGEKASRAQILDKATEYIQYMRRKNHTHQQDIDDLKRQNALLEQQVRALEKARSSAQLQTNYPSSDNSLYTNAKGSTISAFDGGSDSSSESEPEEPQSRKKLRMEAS

| Structure (SMILES) | IC50 [nM] |
| --- | --- |
| CSc1c(C(C)=O)c(=O)c2c(Cl)ccc(Br)c2n1S(=O)(=O)c1ccc(Cl)cc1 [Compound 37, 3-acetyl-8-bromo-5-chloro-1-((4-chlorophenyl)sulfonyl)-2-(methylthio)quinolin-4(1H)-one] | < 1000 |
| CC(=O)c1c([S+]([O-])Cc2ccc(C(C)(C)C)cc2)[nH]c2c(Br)ccc(Cl)c2c1=O (centres unmarked) [Compound 60, 3-acetyl-8-bromo-2-((4-(tert-butyl)benzyl)sulfinyl)-5-chloroquinolin-4(1H)-one] | < 1000 |
| Cc1cc(C[S+]([O-])c2[nH]c3c(Cl)ccc(Cl)c3c(=O)c2C(=O)C2CC2)no1 (centres unmarked) [Compound 97, 5,8-dichloro-3-(cyclopropanecarbonyl)-2-(((5-methylisoxazol-3-yl)methyl)sulfinyl)quinolin-4(1H)-one] | < 1000 |
| CC(=O)c1c([S+]([O-])Cc2cc(Cl)ccc2Cl)[nH]c2c(Br)ccc(Cl)c2c1=O (centres unmarked) [Compound 44, 3-acetyl-8-bromo-5-chloro-2-((2,5-dichlorobenzyl)sulfinyl)quinolin-4(1H)-one] | < 1000 |
| CC(=O)c1c([S+](C)[O-])n(S(=O)(=O)c2ccc(C(C)(C)C)cc2)c2c(Br)ccc(Cl)c2c1=O (centres unmarked) [Compound 42, 3-acetyl-8-bromo-1-((4-(tert-butyl)phenyl)sulfonyl)-5-chloro-2-(methylsulfinyl)quinolin-4(1H)-one] | < 1000 |
| CSc1c(C(C)=O)c(=O)c2c(Cl)ccc(Br)c2n1S(C)(=O)=O [Compound 35, 3-acetyl-8-bromo-5-chloro-1-(methylsulfonyl)-2-(methylthio)quinolin-4(1H)-one] | < 1000 |
| CC(=O)c1c([S+]([O-])CN2C(=O)c3ccccc3C2=O)[nH]c2c(Cl)ccc(Cl)c2c1=O (centres unmarked) [Compound 90, 2-(((3-acetyl-5,8-dichloro-4-oxo-1,4-dihydroquinolin-2-yl)sulfinyl)methyl)isoindoline-1,3-dione] | < 1000 |
| CCS(=O)(=O)n1c([S+](C)[O-])c(C(C)=O)c(=O)c2c(Cl)ccc(Br)c21 (centres unmarked) [Compound 39, 3-acetyl-8-bromo-5-chloro-1-(ethylsulfonyl)-2-(methylsulfinyl)quinolin-4(1H)-one] | < 1000 |
| CC(=O)c1c(S(=O)(=O)Cc2ccccc2)[nH]c2c(Br)ccc(Cl)c2c1=O [Compound 34, 3-acetyl-2-(benzylsulfonyl)-8-bromo-5-chloroquinolin-4(1H)-one] | < 1000 |
| CC(=O)c1c([S+]([O-])Cc2ccccc2)nc2c(Br)ccc(Cl)c2c1O (centres unmarked) [Compound 53, 1-(2-(benzylsulfinyl)-8-bromo-5-chloro-4-hydroxyquinolin-3-yl)ethan-1-one] | < 1000 |
| CC(=O)c1c([S+]([O-])Cc2ccc(C(F)(F)F)cc2)[nH]c2c(Br)ccc(Cl)c2c1=O (centres unmarked) [Compound 70, 3-acetyl-8-bromo-5-chloro-2-((4-(trifluoromethyl)benzyl)sulfinyl)quinolin-4(1H)-one] | < 1000 |
| CC(=O)c1c(SCc2ccccc2)nc2c(Br)ccc(Cl)c2c1O [Compound 52, 1-(2-(benzylthio)-8-bromo-5-chloro-4-hydroxyquinolin-3-yl)ethan-1-one] | < 1000 |
| CC(=O)c1c(S(C)(=O)=O)n(C(=O)c2ccc(Br)cc2)c2c(Br)ccc(Cl)c2c1=O [Compound 21, 3-acetyl-8-bromo-1-(4-bromobenzoyl)-5-chloro-2-(methylsulfonyl)quinolin-4(1H)-one] | < 1000 |
| CC(=O)c1c([S+]([O-])Cc2ccc(C(=O)c3ccccc3)cc2)[nH]c2c(Br)ccc(Cl)c2c1=O (centres unmarked) [Compound 63, 3-acetyl-2-((4-benzoylbenzyl)sulfinyl)-8-bromo-5-chloroquinolin-4(1H)-one] | < 1000 |
| CC(=O)c1c([S+]([O-])Cc2ccc(SC(F)(F)F)cc2)[nH]c2c(Br)ccc(Cl)c2c1=O (centres unmarked) [Compound 56, 3-acetyl-8-bromo-5-chloro-2-((4-((trifluoromethyl)thio)benzyl)sulfinyl)quinolin-4(1H)-one] | < 1000 |
| CC(=O)c1c([S+]([O-])Cc2cccc(F)c2)[nH]c2c(Br)ccc(Cl)c2c1=O (centres unmarked) [Compound 50, 3-acetyl-8-bromo-5-chloro-2-((3-fluorobenzyl)sulfinyl)quinolin-4(1H)-one] | < 1000 |

| Structure (SMILES) | IC50 [nM] |
| --- | --- |
| COC(=O)c1ccc(C[S+]([O-])c2[nH]c3c(Cl)ccc(Cl)c3c(=O)c2C(C)=O)o1 (centres unmarked) [Compound 89, methyl 5-(((3-acetyl-5,8-dichloro-4-oxo-1,4-dihydroquinolin-2-yl)sulfinyl)methyl)furan-2-carboxylate] | < 1000 |
| COCSc1[nH]c2c(Br)ccc(Cl)c2c(=O)c1C(C)=O [Compound 61, 3-acetyl-8-bromo-5-chloro-2-((methoxymethyl)thio)quinolin-4(1H)-one] | < 1000 |
| CC(=O)c1c(SCc2cccc(C#N)c2)[nH]c2c(Br)ccc(Cl)c2c1=O [Compound 27, 3-(((3-acetyl-8-bromo-5-chloro-4-oxo-1,4-dihydroquinolin-2-yl)thio)methyl)benzonitrile] | < 1000 |
| CC(=O)c1c(SCc2cc(Cl)ccc2Cl)[nH]c2c(Br)ccc(Cl)c2c1=O [Compound 43, 3-acetyl-8-bromo-5-chloro-2-((2,5-dichlorobenzyl)thio)quinolin-4(1H)-one] | < 1000 |
| CC(=O)c1c(S/C=C\C(=O)O)[nH]c2c(Br)ccc(Cl)c2c1=O [Compound 67, (Z)-3-((3-acetyl-8-bromo-5-chloro-4-oxo-1,4-dihydroquinolin-2-yl)thio)acrylic acid] | < 1000 |
| Cc1cc(C[S+]([O-])c2[nH]c3c(Br)ccc(Cl)c3c(=O)c2C(=O)C2CC2)no1 (centres unmarked) [Compound 96, 8-bromo-5-chloro-3-(cyclopropanecarbonyl)-2-(((5-methylisoxazol-3-yl)methyl)sulfinyl)quinolin-4(1H)-one] | < 1000 |
| CC(=O)c1c([S+]([O-])CC#N)[nH]c2c(Br)ccc(Cl)c2c1=O (centres unmarked) [Compound 65, 2-((3-acetyl-8-bromo-5-chloro-4-oxo-1,4-dihydroquinolin-2-yl)sulfinyl)acetonitrile] | < 1000 |
| O=C(c1c([S+]([O-])Cc2ccc(SC(F)(F)F)cc2)[nH]c2c(Br)ccc(Cl)c2c1=O)C1CC1 (centres unmarked) [Compound 101, 8-bromo-5-chloro-3-(cyclopropanecarbonyl)-2-((4-((trifluoromethyl)thio)benzyl)sulfinyl)quinolin-4(1H)-one] | < 1000 |
| CSc1c(C(C)=O)c(=O)c2c(Cl)ccc(Br)c2n1S(=O)(=O)c1ccc(C(C)(C)C)cc1 [Compound 40, 3-acetyl-8-bromo-1-((4-(tert-butyl)phenyl)sulfonyl)-5-chloro-2-(methylthio)quinolin-4(1H)-one] | < 1000 |
| CC(=O)c1c(SCc2cccc(F)c2)[nH]c2c(Br)ccc(Cl)c2c1=O [Compound 49, 3-acetyl-8-bromo-5-chloro-2-((3-fluorobenzyl)thio)quinolin-4(1H)-one] | < 1000 |
| CC(=O)c1c([S+]([O-])Cc2cc(F)cc(S(F)(F)(F)(F)F)c2)[nH]c2c(Br)ccc(Cl)c2c1=O (centres unmarked) [Compound 76, 3-acetyl-8-bromo-5-chloro-2-((3-fluoro-5-(pentafluoro-λ6-sulfanyl)benzyl)sulfinyl)quinolin-4(1H)-one] | < 1000 |
| CC(=O)c1c(S(C)(=O)=O)n(S(=O)(=O)c2ccc(C(C)(C)C)cc2)c2c(Br)ccc(Cl)c2c1=O [Compound 41, 3-acetyl-8-bromo-1-((4-(tert-butyl)phenyl)sulfonyl)-5-chloro-2-(methylsulfonyl)quinolin-4(1H)-one] | < 1000 |
| CC(=O)c1c(SCc2ccc(F)c(Cl)c2)[nH]c2c(Br)ccc(Cl)c2c1=O [Compound 30, 3-acetyl-8-bromo-5-chloro-2-((3-chloro-4-fluorobenzyl)thio)quinolin-4(1H)-one] | < 1000 |
| CC(=O)c1c([S+]([O-])Cc2ccc(SC(F)(F)F)cc2)[nH]c2c(Cl)ccc(Cl)c2c1=O (centres unmarked) [Compound 79, 3-acetyl-5,8-dichloro-2-((4-((trifluoromethyl)thio)benzyl)sulfinyl)quinolin-4(1H)-one] | < 1000 |
| CC(=O)c1c(SCC#N)[nH]c2c(Br)ccc(Cl)c2c1=O [Compound 66, 2-((3-acetyl-8-bromo-5-chloro-4-oxo-1,4-dihydroquinolin-2-yl)thio)acetonitrile] | < 1000 |
| CC(=O)c1c([S+]([O-])Cc2cccc(I)c2)[nH]c2c(Br)ccc(Cl)c2c1=O (centres unmarked) [Compound 48, 3-acetyl-8-bromo-5-chloro-2-((3-iodobenzyl)sulfinyl)quinolin-4(1H)-one] | < 1000 |
